Reference: patent US20190100794A1, “Blood matrix metalloproteinase 9 (MMP9) is a predictive biomarker for cardiac diseases and disorders” (University of Rochester, priority 2017, published 2019)

What was measured:
ERK5 in platelets = assay: Platelet activation by FACS P-selectin expression after TRAP6 stimulation, with ERK5 inhibitor pre-incubation; assay type: cell-based, human; details: platelets from healthy volunteers or NSTEMI patients; BIX 02189 0-100 μM, 30 minutes; TRAP6 10 μM, 15 minutes; P<0.05
Method: (FIG. 4A) All patients were given 325 mg aspirin at least 30 minutes prior to blood draw. Platelets were isolated from healthy volunteer subjects (control) or from patients with STEMI or NSTEMI. ERK5 activation was assessed by Western blotting using a phosphor-specific antibody (P-ERK5). A pan-ERK5 antibody was used to detect total ERK5 and the ratio (P-ERK5/ERK5) was used to report ERK5 activity as mean±SEM, n=10-13. *p<0.05 control vs. STEMI, **p=0.01 control vs NSTEMI. The molecular weight is indicated in kiloDaltons (kDa). (FIG. 4B) All patients were given 325-mg aspirin at least 30 minutes before blood draw. […] Platelet activation was assessed by fluorescence-activated cell sorting by P-selectin expression, mean fluorescence intensity (MFI)±SEM, all performed in quadruplicate in each group, n=4. *P<0.05 between NSTEMI/TRAP6 and NSTEMI/TRAP6+BIX 02189 and **P<0.05 control/TRAP6 and control/TRAP6+BIX 02189.
For each study subject, blood was obtained by a trained medical professional into citrate plasma tubes, then centrifuged in a tabletop centrifuge at 1100 rpm for 15 mins. […] This reaction was then stopped by adding 100 μL of 2% formalin to each reaction, and then quantification of platelet surface P-selectin was made possible using an Accuri Flow Cytometer (BD Biosciences) at 10K events per sample. […] Platelet surface p-selectin was quantified in quadruplicate using the geometric mean. […]

[1] = molecular target: T1, platelet cyclooxygenase (COX) (Homo sapiens, UniProt P23219); assay: Plasma TxB2 concentration by ELISA as marker of aspirin inhibition of platelet cyclooxygenase; assay type: in vivo; details: STEMI and NSTEMI patients given 325 mg aspirin at least 30 min before blood draw, versus healthy volunteers not treated with aspirin
T1 construct: endogenous in cells; plasma TxB2 measured by ELISA
T1 sequence (P23219 24-599): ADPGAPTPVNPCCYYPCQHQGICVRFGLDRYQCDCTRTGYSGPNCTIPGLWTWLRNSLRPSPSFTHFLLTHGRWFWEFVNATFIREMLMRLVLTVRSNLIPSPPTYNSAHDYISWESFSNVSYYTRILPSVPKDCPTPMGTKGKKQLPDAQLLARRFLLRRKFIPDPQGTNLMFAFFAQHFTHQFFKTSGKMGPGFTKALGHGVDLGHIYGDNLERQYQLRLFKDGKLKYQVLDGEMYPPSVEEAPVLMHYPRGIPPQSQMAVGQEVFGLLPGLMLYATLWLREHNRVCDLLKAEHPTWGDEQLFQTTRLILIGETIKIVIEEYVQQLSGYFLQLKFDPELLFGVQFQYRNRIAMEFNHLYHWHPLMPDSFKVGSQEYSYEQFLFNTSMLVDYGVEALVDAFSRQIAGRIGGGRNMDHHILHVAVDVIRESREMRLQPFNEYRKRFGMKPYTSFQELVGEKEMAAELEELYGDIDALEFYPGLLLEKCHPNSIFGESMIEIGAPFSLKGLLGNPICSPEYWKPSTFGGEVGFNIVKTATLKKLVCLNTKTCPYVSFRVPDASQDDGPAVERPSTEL
Method: Blood was taken from patients immediately upon presentation with STEMI or NSTEMI and compared to healthy volunteer subjects. Each patient had been given 325 mg aspirin at least 30 mins prior to the blood draw. Plasma was isolated and biomarker concentration was evaluated by ELISA. Plasma TxB2 concentration served as a surrogate marker to assess for differences in efficacy of aspirin between groups, comparing this to healthy volunteer subjects (control) not taking aspirin. […] ELISA=Enzyme-Linked Immunosorbant Assay.
Each patient was treated with 325 mg aspirin in the ambulance, in the ED, or hospital least 30 minutes prior to blood draw.
Enzyme-linked immunosorbant assays (ELISAs) were conducted according to the manufacturer's instructions using the sandwich ELISA technique. […] The ELISA for plasma thromboxane B2 (cat#501020) was purchased from Cayman Chemicals.

PAR1 = molecular target: T2, PAR1 (Homo sapiens, UniProt P25116); details: triple therapy of DAPT plus vorapaxar, cited from earlier work
T2 construct: Thrombin-Receptor Antagonist Vorapaxar in Acute Coronary Syndromes (TRACER) study; host or cells: patients of a clinical trial (Tricoci P, et al., 2012, N Engl J Med)
T2 sequence (P25116 22-425): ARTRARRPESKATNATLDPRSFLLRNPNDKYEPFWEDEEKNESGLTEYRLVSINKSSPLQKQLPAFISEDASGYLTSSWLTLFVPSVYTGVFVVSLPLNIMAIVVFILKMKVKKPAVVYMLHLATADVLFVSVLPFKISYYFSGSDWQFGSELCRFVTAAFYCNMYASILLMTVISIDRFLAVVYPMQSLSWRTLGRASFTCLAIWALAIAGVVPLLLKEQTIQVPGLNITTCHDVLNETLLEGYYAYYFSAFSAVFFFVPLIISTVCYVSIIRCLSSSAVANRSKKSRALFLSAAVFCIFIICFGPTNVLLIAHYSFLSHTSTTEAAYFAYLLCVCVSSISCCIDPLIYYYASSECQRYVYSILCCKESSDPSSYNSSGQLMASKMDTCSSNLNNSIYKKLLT

CN(C)Cc1cccc(N/C(=C2\C(=O)Nc3cc(C(=O)N(C)C)ccc32)c2ccccc2)c1 [BIX 02189]
TRAP6-induced platelet activation (P-selectin expression, MFI) (ERK5 in platelets): prevents platelet activation

CC(=O)Oc1ccccc1C(=O)O [aspirin]
plasma TxB2 concentration [1]: decrease

CCOC(=O)N[C@@H]1CC[C@@H]2[C@@H](C1)C[C@H]1C(=O)O[C@H](C)[C@H]1[C@H]2/C=C/c1ccc(-c2cccc(F)c2)cn1 [vorapaxar]
relative reduction in the primary end point (PAR1; nonsignificant): 8%
bleeding (PAR1): trend toward clinically significant bleeding
